Patent US20240158446A1, “CYCLIC COMPOUND HAVING SELECTIVE INHIBITORY ACTION ON KRAS OVER HRAS AND NRAS” (CHUGAI SEIYAKU KABUSHIKI KAISHA, priority 2021, published 2024)
pIC50, pKd: −log10 of the molar value. Where two headings read alike, the source gives them in different places.

Legend:
[1] = tested on: human lung cancer strain NCI-H441;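 further: cell proliferation inhibition after four days measured by CellTiter-Glo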
[2] = target: GDP-bound NRAS wild-type protein (Homo sapiens, UniProt P01111); assay: Binding to NRAS by surface plasmon resonance (SPR), Single Cycle Kinetics; details: for NRAS/KRAS (ratio of KD value for NRAS to KD value for KRAS): SPR, GDP-bound NRAS wild-type protein vs GDP-bound KRAS wild-type protein
[3] = target: GDP-bound HRAS wild-type protein (Homo sapiens, UniProt P01112); assay: Binding to HRAS by surface plasmon resonance (SPR), Single Cycle Kinetics; details: for HRAS/KRAS (ratio of KD value for HRAS to KD value for KRAS): SPR, GDP-bound HRAS wild-type protein vs GDP-bound KRAS wild-type protein
[4] = target: GDP-bound KRAS wild-type protein (Homo sapiens, UniProt P01116); assay: Binding to KRAS by surface plasmon resonance (SPR), Single Cycle Kinetics; details: GDP-bound KRAS wild-type protein, read-out: KRAS KD
[5] = SPR, Single Cycle Kinetics, 1:1 binding model

Chain of GDP-bound NRAS wild-type protein (P01111 whole entry): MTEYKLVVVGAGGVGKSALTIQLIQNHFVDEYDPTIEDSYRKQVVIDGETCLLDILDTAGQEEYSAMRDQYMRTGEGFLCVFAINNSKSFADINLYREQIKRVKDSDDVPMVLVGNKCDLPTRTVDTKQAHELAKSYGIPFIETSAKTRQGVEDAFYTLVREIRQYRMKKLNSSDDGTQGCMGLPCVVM
Chain of GDP-bound KRAS wild-type protein (P01116 whole entry): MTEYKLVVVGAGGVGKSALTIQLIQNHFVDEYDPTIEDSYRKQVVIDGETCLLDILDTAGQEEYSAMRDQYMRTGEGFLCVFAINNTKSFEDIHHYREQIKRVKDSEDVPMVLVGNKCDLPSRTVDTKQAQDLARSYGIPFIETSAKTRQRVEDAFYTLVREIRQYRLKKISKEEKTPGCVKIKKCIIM
Chain of GDP-bound HRAS wild-type protein (P01112 whole entry): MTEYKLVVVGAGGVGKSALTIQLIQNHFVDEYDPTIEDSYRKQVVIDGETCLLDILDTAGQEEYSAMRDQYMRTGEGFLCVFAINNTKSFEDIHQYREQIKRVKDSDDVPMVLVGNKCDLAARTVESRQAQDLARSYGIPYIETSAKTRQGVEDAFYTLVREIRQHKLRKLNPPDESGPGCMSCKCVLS

| SMILES | pIC50 [1] | pKd ([4]; SPR Single Cycle Kinetics, 1:1 binding model) | pKd [4, 5] | pKd ([4]; SPR, Single Cycle Kinetics) | NRAS/KRAS (ratio of KD value with respect to GDP-bound NRAS wild-type protein to KD value with respect to KRAS) ([2]; SPR KD ratio NRAS/KRAS, class symbols) | HRAS/KRAS (ratio of KD value with respect to GDP-bound HRAS wild-type protein to KD value with respect to KRAS) ([3]; SPR KD ratio HRAS/KRAS, class symbols) | NRAS/KRAS (ratio of KD value for NRAS to KD value for KRAS) ([2]; KD ratio class) | HRAS/KRAS (ratio of KD value for HRAS to KD value for KRAS) ([3]; KD ratio class) | NRAS/KRAS (ratio of KD value for NRAS to KD value for KRAS) [2] | HRAS/KRAS (ratio of KD value for HRAS to KD value for KRAS) [3] |
| --- | --- | --- | --- | --- | --- | --- | --- | --- | --- | --- |
| CCO[C@@H]1C[C@H]2C(=O)NC3(CC(C)(C)C3)C(=O)N(C)[C@@H](C(CC)CC)C(=O)N(C)[C@H](C(=O)N(C)C)CC(=O)N(C)[C@@H](COC)C(=O)N[C@@H]([C@@H](C)CC)C(=O)N(C3CC3)CC(=O)N(C)[C@H]3C/C=C\CCN(C3=O)[C@@H](CC3CCCCC3)C(=O)N(C)CC(=O)N[C@@H](CCc3cc(F)c(C(F)(F)F)c(F)c3)C(=O)N2C1 [PP2564] | 6.65 | 8.12 | – | – | A (a compound having 10 or more and less than 20 is denoted as A) | A (a compound having 10 or more and less than 20 is denoted as A) | – | – | – | – |
| CCCOC[C@H]1C(=O)N[C@@H]([C@@H](C)CC)C(=O)N(C)CC(=O)N(C)[C@H]2C/C=C\CCN(C2=O)[C@@H](CC2CCC(F)(F)CC2)C(=O)N(C)CC(=O)N[C@@H](CCc2cc(F)c(C(F)(F)F)c(F)c2)C(=O)N2C[C@H](OCC)C[C@H]2C(=O)NC2(CC(C)(C)C2)C(=O)N(C)[C@@H](C(CC)CC)C(=O)N(C)[C@H](C(=O)N(C)C)CC(=O)N1C [PP2472] | 7.37 | – | – | 9.24 | – | – | – | – | A (a compound having 10 or more and less than 20 is denoted as A) | A (a compound having 10 or more and less than 20 is denoted as A) |
| C#CCN1CC(=O)N(C)[C@H]2C/C=C\CCN(C2=O)[C@@H](Cc2ccc(C)cc2)C(=O)N(C)CC(=O)N[C@@H](CCc2ccc(C(F)(F)F)c(OC)c2)C(=O)N2C[C@H](OCC)C[C@H]2C(=O)NC2(CC(C)(C)C2)C(=O)N(C)[C@@H](C2CCCC2)C(=O)N(C)[C@H](C(=O)N(C)C)CC(=O)N(C)[C@@H](CCC)C(=O)N[C@@H](CC(C)C)C1=O [PP2514] | 7.06 | – | – | 8.62 | – | – | – | – | A (a compound having 10 or more and less than 20 is denoted as A) | B (a compound having 3 or more and less than 10 is denoted as B) |
| CCOC[C@H]1C(=O)N[C@@H]([C@@H](C)CC)C(=O)N(C)CC(=O)N(C)[C@H]2C/C=C\CCN(C2=O)[C@@H](CC2CCC(F)(F)CC2)C(=O)N(C)CC(=O)N[C@@H](CCc2ccc(C(F)(F)F)c(OC)c2)C(=O)N2C[C@H](OCC)C[C@H]2C(=O)NC2(CC(C)(C)C2)C(=O)N(C)[C@@H](C(CC)CC)C(=O)N(C)[C@H](C(=O)N(C)C)CC(=O)N1C [PP2446] | 6.91 | – | – | 9.09 | – | – | – | – | A (a compound having 10 or more and less than 20 is denoted as A) | A (a compound having 10 or more and less than 20 is denoted as A) |
| CCO[C@@H]1C[C@H]2C(=O)NC3(CCC3)C(=O)N(C)[C@@H](C(CC)CC)C(=O)N(C)[C@H](C(=O)N(C)C)CC(=O)N(C)[C@@H](C)C(=O)N[C@@H]([C@@H](C)CC)C(=O)N(C)CC(=O)N(C)[C@H]3C/C=C\CCN(C3=O)[C@@H](Cc3ccc(C(F)(F)F)cc3)C(=O)N(C)CC(=O)N[C@@H](CCc3cc(F)c(C(F)(F)F)c(F)c3)C(=O)N2C1 [PP1199, (2S,8S,12R,14S,20S,23S,27S,30S,36S,38Z)-8-[2-[3,5-difluoro-4-(trifluoromethyl)phenyl]ethyl]-12-ethoxy-20-(1-ethylpropyl)-N,N,4,19,22,26,27,32,35-nonamethyl-30-[(1S)-1-methylpropyl]-3,6,9,15,18,21,25,28,31,34,42-undecaoxo-2-[[4-(trifluoromethyl)phenyl]methyl]spiro[1,4,7,10,16,19,22,26,29,32,35-undecazatricyclo[34.5.1.0^10,14]dotetracont-38-ene-17,1′-cyclobutane]-23-carboxamide] | 7.41 | – | – | 9.77 | – | – | – | – | A (a compound having 10 or more and less than 20 is denoted as A) | A (a compound having 10 or more and less than 20 is denoted as A) |

The next molecules have a higher pIC50 [1] than those just listed; values first:

| pIC50 [1] | pKd ([4]; SPR Single Cycle Kinetics, 1:1 binding model) | pKd [4, 5] | pKd ([4]; SPR, Single Cycle Kinetics) | SMILES | NRAS/KRAS (ratio of KD value with respect to GDP-bound NRAS wild-type protein to KD value with respect to KRAS) ([2]; SPR KD ratio NRAS/KRAS, class symbols) | HRAS/KRAS (ratio of KD value with respect to GDP-bound HRAS wild-type protein to KD value with respect to KRAS) ([3]; SPR KD ratio HRAS/KRAS, class symbols) | NRAS/KRAS (ratio of KD value for NRAS to KD value for KRAS) ([2]; KD ratio class) | HRAS/KRAS (ratio of KD value for HRAS to KD value for KRAS) ([3]; KD ratio class) | NRAS/KRAS (ratio of KD value for NRAS to KD value for KRAS) [2] | HRAS/KRAS (ratio of KD value for HRAS to KD value for KRAS) [3] |
| --- | --- | --- | --- | --- | --- | --- | --- | --- | --- | --- |
| 7.65 | – | 9.70 | – | CCO[C@@H]1C[C@H]2C(=O)NC3(CCC3)C(=O)N(C)[C@@H](C3CCCC3)C(=O)N(C)[C@H](C(=O)N(C)C)CC(=O)N(C)[C@@H](CC3CC3)C(=O)N[C@@H]([C@@H](C)CC)C(=O)N(C)CC(=O)N(C)[C@H]3C/C=C\CCN(C3=O)[C@@H](Cc3ccc(C(F)(F)F)cc3)C(=O)N(C)CC(=O)N[C@@H](CCc3ccc(Cl)c(Cl)c3)C(=O)N2C1 [PP1253, (2S,8S,12R,14S,20S,23S,27S,30S,36S,38Z)-20-cyclopentyl-27-(cyclopropylmethyl)-8-[2-(3,4-dichlorophenyl)ethyl]-12-ethoxy-N,N,4,19,22,26,32,35-octamethyl-30-[(1S)-1-methylpropyl]-3,6,9,15,18,21,25,28,31,34,42-undecaoxo-2-[[4-(trifluoromethyl)phenyl]methyl]spiro[1,4,7,10,16,19,22,26,29,32,35-undecazatricyclo[34.5.1.0^10,14]dotetracont-38-ene-17,1′-cyclobutane]-23-carboxamide] | – | – | A (a compound having 10 or more and less than 20 is denoted as A) | A (a compound having 10 or more and less than 20 is denoted as A) | – | – |
| 7.87 | – | 9.59 | – | CCO[C@@H]1C[C@H]2C(=O)NC3(CCC3)C(=O)N(C)[C@@H](C3CCCC3)C(=O)N(C)[C@H](C(=O)N3CCOCC3)CC(=O)N(C)[C@@H](CC)C(=O)N[C@@H]([C@@H](C)CC)C(=O)N3CC[C@H]3C(=O)N(C)[C@H]3CC[C@@H](C)CN(C3=O)[C@@H](Cc3ccc(C(F)(F)F)cc3)C(=O)N(C)CC(=O)N[C@@H](CCc3cc(F)c(C(F)(F)F)c(F)c3)C(=O)N2C1 [PP1369] | – | – | B (a compound having 3 or more and less than 10 is denoted as B) | B (a compound having 3 or more and less than 10 is denoted as B) | – | – |
| 8.36 | – | 10.13 | – | CCO[C@@H]1C[C@H]2C(=O)NC3(CCC3)C(=O)N(C)[C@@H](C3CCCC3)C(=O)N(C)[C@H](C(=O)N(C)C)CC(=O)N(C)[C@@H](CC(C)C)C(=O)N[C@@H]([C@@H](C)CC)C(=O)N(C)CC(=O)N(C)[C@H]3C/C=C\CCN(C3=O)[C@@H](Cc3ccc(C)cc3)C(=O)N(C)CC(=O)N[C@@H](CCc3cc(F)c(C(F)(F)F)c(F)c3)C(=O)N2C1 [PP1414, (2S,8S,12R,14S,20S,23S,27S,30S,36S,38Z)-20-cyclopentyl-8-[2-[3,5-difluoro-4-(trifluoromethyl)phenyl]ethyl]-12-ethoxy-27-isobutyl-N,N,4,19,22,26,32,35-octamethyl-30-[(1S)-1-methylpropyl]-3,6,9,15,18,21,25,28,31,34,42-undecaoxo-2-(p-tolylmethyl)spiro[1,4,7,10,16,19,22,26,29,32,35-undecazatricyclo[34.5.1.0^10,14]dotetracont-38-ene-17,1′-cyclobutane]-23-carboxamide] | – | – | A (a compound having 10 or more and less than 20 is denoted as A) | B (a compound having 3 or more and less than 10 is denoted as B) | – | – |
